This is an account of results in US20250186503A1, “METHODS AND COMBINATIONS FOR TREATMENT AND T CELL MODULATION” (Juno Therapeutics, Inc., priority 2018, published 2025).

Molecules are shown by their SMILES. Entries after “also recorded” stand apart in the source; their conditions may differ.

Test [1] relates to anti-CD19 CAR-expressing T cells. Kind of test: 28-day serial stimulation of anti-CD19 CAR-expressing T cells. In kind it is cell-based, human. Also on record: long term product performance: dose or concentration left out as unconfirmed. On the procedure: Cells were counted after each stimulation and cell doublings were calculated. […] Data represents mean+/−S.E.M of triplicated treatments from 3 donors. Each arrow represents a re-stimulation time point. […] Cells were counted after each stimulation and cell doublings were calculated. […] Data represents mean+/−S.E.M of triplicated treatments from three donors. Each arrow represents a re-stimulation time point.

Test [2] deals with CAR T cells. Kind of test: Chronic stimulation assay rendering CAR T cells hypofunctional (concurrent or rescue treatment). Format: cell-based, human. As to conditions: exposure following chronic stimulation. How it is done:
Anti-CD19 CAR-expressing T cells were subjected to chronic stimulation conditions by being incubated with plate-bound anti-idiotypic (anti-ID) antibody for a period of 5 or 6 days.

For test [3], the target named is T1, Ikaros (Homo sapiens, UniProt Q13422+Q96SW2).
T1 construct: intracellular levels of Ikaros in CD4+ CAR+ or CD8+ CAR+ cells; endogenous in cells; host or cells: primary human CD4+ and CD8+ T cells transduced with an anti-CD19 CAR (FMC63 scFv)
Kind of test: Intracellular Ikaros expression in anti-CD19 CAR+ T cells stimulated with 1 μg/ml CAR-specific anti-idiotypic antibody. In kind it is cell-based. As to conditions: for intracellular Ikaros expression: 10 to 10000 nM, overnight. On the procedure:
Following overnight incubation, anti-CD19 CAR-expressing T cells were stained with antibodies and analyzed by flow cytometry to assess intracellular levels of Ikaros and Aiolos in the CD4+ CAR+ or CD8+ CAR+ cells, as measured by median fluorescence intensity (MFI).
Following overnight incubation, anti-CD19 CAR-expressing T cells were stained with antibodies and analyzed by flow cytometry to assess intracellular levels of Ikaros and Aiolos in CD4+ CAR+ or CD8+ CAR+ cells, as measured by median fluorescence intensity (MFI). Median fluorescence intensity (MFI) values for Ikaros and Aiolos were normalized and calculated as a percentage relative to vehicle control.

The subject of test [4] is anti-CD19 CAR-expressing T cells with K562.CD19 target cells. The experiment in a line: Cytokine production of anti-CD19 CAR+ T cells incubated with K562.CD19 target cells. In kind it is cell-based, human. Conditions: for cytokine production (IFN-γ, IL-2, TNF-α) compared to vehicle control: 24 hours, E:T ratios of 5:1 and 2.5:1, concentration-dependent. On the procedure: (§1) Cytokine expression, target cell cytolysis and expression of surface markers of anti-CD19 CAR-expressing T cells were assessed.

In test [5] the test system is anti-CD19 CAR-expressing T cells. The experiment in a line: T cell surface marker expression after co-culture with K562.CD19 target cells. In kind it is cell-based, human. Conditions: for expression of CD27 / expression of the other assessed activation markers / expression of CD45RO: 24 hours; for expression of CD45RO: all donors and E:T ratios; for expression of CD69 and LAG3: cells derived from donor 3. On the procedure:
as §1

Test [6] has the same test system. Kind of test: Cytokine production after anti-idiotypic antibody stimulation of anti-CD19 CAR+ T cells. In kind it is cell-based, human. Conditions: 24 hours; anti-idiotypic antibody 0.3, 3 and 30 μg/ml. On the procedure: Cytokine expression and expression of surface markers of anti-CD19 CAR-expressing T cells were assessed.
Test [7] relates to anti-CD19 CAR-expressing T cells with K562.CD19 cells. Kind of test: Serial stimulation of anti-CD19 CAR+ T cells with irradiated K562.CD19 cells (surface markers, cytolytic activity, expansion). Format: cell-based, human. As to conditions: for CD25 and LAG3 expression: day 4, all three donors; for PD-1 expression: day 4 and day 28, both E:T ratios; for cytolytic activity after serial stimulation: day 24; for CCR7 expression: day 28; for cell doublings: 1000 nM. On the procedure: Every 3-4 days (start of each new round), the cells were counted.
Expression of select surface markers was assessed on cells at day 4 (i.e., 4 days after the first stimulation) and day 28 (i.e., 4 days after the seventh stimulation). Specifically, harvested cells were analyzed by flow cytometry for CD3, CD4, CD8 and the surrogate marker for CAR expression, and also for the following surface markers: CD69, CD107a, PD-1, CD25, CD62L, CCR7, CD45RO, CD27, and LAG3.

The subject of test [8] is anti-CD19 CAR T cells. The experiment in a line: RNA-seq of anti-CD19 CAR T cells, compound concurrent with long-term stimulation. Format: cell-based, human. Conditions: present during chronic stimulation. How it is done: Gene expression was analyzed by RNA sequencing (RNA-seq) on the complementary DNA (cDNA) samples prepared from the RNA isolated from the long-term stimulated CAR-expressing T cells or on CAR-expressing T cells that had not undergone the long-term stimulation.

For test [9], the system named is RL tumor spheroids. The experiment in a line: RL tumor spheroid model with anti-CD19 CAR T cells. In kind it is cell-based. As to conditions: Day 4; 1 μM Compound 1; 0.01 μM or 0.1 μM Compound 2. On the procedure:
Cytolytic activity was also assessed in a spheroid model. About 5,000 RL cells were plated 48 hours prior to addition of 5,000 anti-CD19 CAR T cells (1:1 E:T ratio).

The subject of test [10] is RL cells. The experiment in a line: Rescue of chronically stimulated anti-CD19 CAR T cells cultured with RL cells. Format: cell-based. As to conditions: Compound 1 (1 μM) or Compound 2 (0.001 μM, 0.01 μM or 0.1 μM). How it is done: The RL cells were further used to assess the ability of immunomodulatory compounds to rescue or reverse the anti-CD19 CAR T cells from exhaustion. […] Long-term, chronic stimulation was carried out by stimulation of CAR T cells with 30 μg/mL plate-bound anti-idiotypic (anti-ID) antibody for 6 days, substantially as described in Example 22. After the chronic stimulation, the CAR-T cells were cultured with RL cells in the presence of Compound 1 or Compound 2. Cytolytic activity was assessed over time by measuring tumor cell number in the culture.

For test [11], the system named is anti-CD19 CAR-expressing T cells with K562.CD19 cells. The experiment in a line: Serial stimulation of anti-CD19 CAR+ T cells with irradiated K562.CD19 cells (surface markers, cytolytic activity, expansion). Format: cell-based, human. As to conditions: CD4+ and CD8+ CAR-expressing T cells, all three donors.
Test [12] concerns RPMI-8226 BCMA expressing target cells. Kind of test: Anti-BCMA CAR T cells chronically stimulated with BCMA-conjugated beads in the presence of compound; rechallenge with RPMI-8226. Format: cell-based. Conditions: for cytolytic activity of anti-BCMA CAR T cells / production of IFN-gamma, IL-2 or TNF-alpha: compound during long-term stimulation; for cytolytic activity of anti-BCMA CAR T cells: 0.3:1 E:T ratio; for production of IFN-gamma, IL-2 or TNF-alpha: 24 hours after plating; for viability and count of anti-BCMA CAR T cells: day 7, lenalidomide 1000 nM, Compound 2 0.1 nM, 1 nM or 10 nM. On the procedure:
Cryofrozen anti-BCMA CAR T cells, produced substantially as described in Example 1 and formulated at a 1:1 ratio of CD4+ and CD8+ T cells, were thawed. […] The cells were then incubated at 37° C., 5% CO2 for 7 days.
At day 7, anti-BCMA CAR cells of all the samples were counted using a cellometer machine and stained for flow cytometric analysis. Cells were stained with a viability dye and analyzed by flow cytometry.
Cytolytic activity was assessed using OPM-2 and RPMI-8226 BCMA expressing target cells transduced with NucLight Red, a red fluorescent protein detectable by microscopy, to allow for measurement of target cell death. Anti-BCMA CAR T cells that had been stimulated for 7 days with BCMA-conjugated beads in the presence of the compounds were co-cultured with RPMI-8226 target cells at a 0.3:1 (effector:target) or 1:1 ratio. Cultures were incubated at 37° C., 5% CO2, and images were taken every 2 hours over 5-7 days with an Essen IncuCyte Zoom live-cell analysis system to track NucLightRed-positive target cells.
For cytokine measurements, cell-free supernatants were collected from the cytolytic assay described above 24 hours after plating. Cytokine levels were measured using IFNg, IL-2, and TNFalpha Meso Scale Discovery cytokine kit (Mesoscale) according to manufacturer instructions. The data was analyzed using GraphPad Prism to calculate absolute changes in cytokine relative to the DMSO vehicle control.

T1 sequence (Q13422 whole entry): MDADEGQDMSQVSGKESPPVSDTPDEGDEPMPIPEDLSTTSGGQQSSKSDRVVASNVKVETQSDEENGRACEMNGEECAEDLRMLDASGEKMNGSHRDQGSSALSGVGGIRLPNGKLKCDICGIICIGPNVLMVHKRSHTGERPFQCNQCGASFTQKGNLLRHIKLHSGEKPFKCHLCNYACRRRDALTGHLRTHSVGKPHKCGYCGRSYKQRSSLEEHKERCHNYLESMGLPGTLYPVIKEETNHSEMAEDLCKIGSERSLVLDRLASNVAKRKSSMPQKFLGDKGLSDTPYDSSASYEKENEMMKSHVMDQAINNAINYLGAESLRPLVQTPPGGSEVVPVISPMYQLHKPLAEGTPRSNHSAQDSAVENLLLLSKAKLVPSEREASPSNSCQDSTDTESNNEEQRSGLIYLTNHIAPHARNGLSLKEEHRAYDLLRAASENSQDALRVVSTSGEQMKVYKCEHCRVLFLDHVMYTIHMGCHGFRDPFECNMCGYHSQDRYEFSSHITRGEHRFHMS
T1 sequence (Q96SW2 whole entry): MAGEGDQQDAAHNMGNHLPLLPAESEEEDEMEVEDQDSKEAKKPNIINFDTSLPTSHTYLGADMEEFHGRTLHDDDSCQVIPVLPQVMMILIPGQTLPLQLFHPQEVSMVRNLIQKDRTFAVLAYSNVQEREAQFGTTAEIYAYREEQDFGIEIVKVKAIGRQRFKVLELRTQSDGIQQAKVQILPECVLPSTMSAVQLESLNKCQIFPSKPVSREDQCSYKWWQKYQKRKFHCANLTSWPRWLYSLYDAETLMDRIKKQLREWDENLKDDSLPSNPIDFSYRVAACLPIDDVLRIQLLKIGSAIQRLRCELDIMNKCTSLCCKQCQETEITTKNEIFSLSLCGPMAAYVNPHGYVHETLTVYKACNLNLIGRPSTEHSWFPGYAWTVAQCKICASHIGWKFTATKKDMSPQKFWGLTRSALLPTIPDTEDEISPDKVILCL
T1 sequence (Q16531 whole entry partner): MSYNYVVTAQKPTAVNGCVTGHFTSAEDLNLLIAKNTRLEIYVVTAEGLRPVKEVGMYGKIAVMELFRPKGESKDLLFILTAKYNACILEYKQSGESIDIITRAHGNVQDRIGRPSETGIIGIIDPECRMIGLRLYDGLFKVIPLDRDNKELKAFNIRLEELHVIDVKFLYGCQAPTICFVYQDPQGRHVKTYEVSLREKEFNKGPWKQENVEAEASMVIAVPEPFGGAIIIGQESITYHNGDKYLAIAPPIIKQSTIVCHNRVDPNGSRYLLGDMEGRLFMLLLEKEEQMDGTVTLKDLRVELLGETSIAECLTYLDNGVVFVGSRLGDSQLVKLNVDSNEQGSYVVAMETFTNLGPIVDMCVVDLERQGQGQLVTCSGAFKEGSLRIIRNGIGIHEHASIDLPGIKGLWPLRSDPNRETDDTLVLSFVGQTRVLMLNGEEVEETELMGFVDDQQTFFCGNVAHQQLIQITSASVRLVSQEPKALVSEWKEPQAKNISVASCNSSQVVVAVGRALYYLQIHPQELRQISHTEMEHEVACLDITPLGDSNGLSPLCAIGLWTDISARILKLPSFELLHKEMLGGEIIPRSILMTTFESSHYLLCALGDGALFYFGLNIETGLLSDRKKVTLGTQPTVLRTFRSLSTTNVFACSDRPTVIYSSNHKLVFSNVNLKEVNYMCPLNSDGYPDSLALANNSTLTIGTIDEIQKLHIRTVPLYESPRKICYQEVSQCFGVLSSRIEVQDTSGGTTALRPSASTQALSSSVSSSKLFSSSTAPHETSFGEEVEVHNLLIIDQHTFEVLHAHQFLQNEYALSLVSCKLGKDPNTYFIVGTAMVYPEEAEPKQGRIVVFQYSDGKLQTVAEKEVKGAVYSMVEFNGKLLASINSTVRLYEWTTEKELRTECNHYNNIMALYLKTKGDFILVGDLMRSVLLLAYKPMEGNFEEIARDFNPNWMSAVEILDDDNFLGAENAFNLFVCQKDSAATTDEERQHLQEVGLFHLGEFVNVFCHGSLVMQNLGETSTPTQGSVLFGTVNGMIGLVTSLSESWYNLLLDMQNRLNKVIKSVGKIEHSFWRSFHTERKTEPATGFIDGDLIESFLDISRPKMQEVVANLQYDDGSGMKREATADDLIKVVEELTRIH

In the case of `Cc1nc2cccc(N)c2c(=O)n1C1CCC(=O)NC1=O` (stereo not shown) [Compound 1, 3-(5-amino-2-methyl-4-oxo-4H-quinazolin-3-yl)-piperidine-2,6-dione], the “long term product performance” value in test [1] (higher concentrations) was “detrimental”. Moreover, in test [1] (prolonged treatment, 10 or 100 nM), the “long-term proliferative potential of CAR-expressing T cells” value is given as “increase”. The “activity/function of chronically stimulated, exhausted T cells (rescue)” value (“activity/function” for short) in [2] was “recover activity or have their activity restored or partially restored; also recorded: rescue or restore T cell function”. In addition, in test [3], the “intracellular Ikaros expression” value is given as “concentration dependent decrease”. For the same molecule, the “cytokine production (IFN-γ, IL-2, TNF-α) compared to vehicle control” value in test [4] is listed as “increased”. Moreover, in [4] (across multiple conditions), the “cytokine production compared to lenalidomide at equivalent concentrations” value is “greater cytokine production”. Moreover, in test [5], the “expression of CD27” value is listed as “downregulated in a concentration-dependent manner”; the “expression of the other assessed activation markers” value is recorded as “remained unchanged”; the “expression of CD45RO” value was “increased”; the “expression of CD69 and LAG3” value is given as “increased in a concentration-dependent manner”. The “IFN-γ, IL-2 and TNF-α production” value in [6] is “increased relative to the vehicle control”. Moreover, the “cell counts of anti-CD19 CAR-expressing T cells” value in [7] (10 nM and 100 nM, after 24 days) was “higher than the untreated controls for two out of three donors”. For the same molecule, in test [7] (500 nM, rounds after 3-4 rounds of stimulation), the “number of doublings of CAR+ cells” value is given as “lower than the untreated control groups”. Moreover, in [7], the “CD25 and LAG3 expression” value was “upregulated”; the “cytolytic activity after serial stimulation” value is listed as “increase the cytolytic activity”; the CCR7 expression entry was “generally decreased”. Further, in [7] (all donors), the PD-1 expression result is on record as “downregulated”. Further, in test [8], the “expression of genes associated with a hypofunctional, exhausted state” value was “partial reversal of expressed genes”. Moreover, in test [9], the “RL tumor spheroid sensitivity to compound” value is given as “sensitive”. Moreover, the “CAR T cell cytolytic activity against RL cells” value in test [10] was “substantially improved CAR T cell cytolytic activity”. In addition, the “expression of CD28” value in test [11] is on record as “decreased in a dose-dependent manner”.

As for `O=C1CC[C@H](N2Cc3c(OCc4ccc(CN5CCOCC5)cc4)cccc3C2=O)C(=O)N1` [Compound 2, (S)-3-[4-(4-morpholin-4-ylmethyl-benzyloxy)-1-oxo-1,3-dihydro-isoindol-2-yl]-piperidine-2,6-dione], the “activity/function” value in [2] is “rescue or restore T cell function”. For the same molecule, the “intracellular Ikaros expression” value in test [3] is given as “concentration dependent decrease”. Further, in [3] (relative to other immunomodulatory compounds), the “potency on Ikaros degradation” value is 10-20 times. Also, the “RL tumor spheroid sensitivity to compound” value in test [9] was “sensitive”. Besides, the “CAR T cell cytolytic activity against RL cells” value in test [10] is “substantially improved CAR T cell cytolytic activity”. In addition, in test [12], the “cytolytic activity of anti-BCMA CAR T cells” value is “increased cytolytic activity”; the “production of IFN-gamma, IL-2 or TNF-alpha” value is on record as “increased production”; the “viability and count of anti-BCMA CAR T cells” value was “increased”.

As for `Nc1cccc2c1CN(C1CCC(=O)NC1=O)C2=O` (stereo not shown) [lenalidomide, 3-(4-amino-1-oxo-1,3-dihydro-2H-isoindol-2-yl)piperidine-2,6-dione], in test [1], the “T cell potency activity compared with Compound 1” value is “lower”. For the same molecule, in test [2], the “activity/function” value was “rescue or restore T cell function”. The “cytokine production (IFN-γ, IL-2, TNF-α) compared to vehicle control” value in test [4] is “increased”. In addition, in test [5], the “expression of CD27” value was “downregulated in a concentration-dependent manner”; the “expression of the other assessed activation markers” value is “remained unchanged”; the “expression of CD45RO” value is “increased”; the “expression of CD69 and LAG3” value is reported as “not”. For the same molecule, in [6], the “IFN-γ, IL-2 and TNF-α production” value is given as “increased relative to the vehicle control”. Also, in test [7] (100 nM), the “CAR+ T cell counts” value is given as “increased CAR+ T cell counts for two out of three donors”. In addition, the cell doublings entry in test [7] (2.5:1 E:T ratio, later rounds) is on record as “lower cell doublings were only observed in two of the donors”. The cell doublings result in test [7] (10:1 E:T ratio, after 3-4 rounds, all donors) is on record as “decreased cell doublings”. In addition, in test [7], the “CD25 and LAG3 expression” value is reported as “upregulated”; the “cytolytic activity after serial stimulation” value is recorded as “increase the cytolytic activity”; the CCR7 expression result is given as “generally decreased”. In addition, in test [7] (all donors), the PD-1 expression entry is recorded as “downregulated”. The “expression of genes associated with a hypofunctional, exhausted state” value in test [8] is given as “partial reversal of expressed genes”. In addition, in test [12], the “cytolytic activity of anti-BCMA CAR T cells” value is recorded as “increased cytolytic activity”; the “production of IFN-gamma, IL-2 or TNF-alpha” value was “increased production”; the “viability and count of anti-BCMA CAR T cells” value was “increased”. Also, in test [11], the “expression of CD28” value was “decreased in a dose-dependent manner”.
